Results taken from patent US7029857B1, “Processes for obtaining compounds employing SNORF72 receptors” (H. Lundbeck A/S, priority 1999, dated 2006).
No end group written: not given here.

Experiments:
control oocytes = assay: Cl- currents in control oocytes lacking injection of foreign mRNA; assay type: cell-based, Xenopus laevis
Procedure: In the present invention, oocytes were harvested from Xenopus laevis and injected with mRNA transcripts as previously described (Quick and Lester, 1994; Smith et al., 1997). SNORF62 mRNA transcript was synthesized using the T7 polymerase (“Message Machine”, Ambion) from linearized plasmids or PCR products containing the complete coding region of the gene. Oocytes were injected with 1–50 ng synthetic receptor RNA and incubated for 3–8 days at 17° C. Currents were recorded under dual electrode voltage clamp (Axon Instruments Inc.) with 3 M KCl-filled glass microelectrodes having resistances of 1–2 Mohm. Unless otherwise specified, oocytes were voltage clamped at a holding potential of −80 mV. During recordings, oocytes were bathed in continuously flowing (1–3 mL/min) medium containing 96 mM NaCl, 2 mM KCl, 1.8 mM CaCl2, 1 mM MgCl2, and 5 mM HEPES, pH 7.5 (ND96). Drugs were applied either by local perfusion from a 10 μL glass capillary tube fixed at a distance of 0.5 mm from the oocyte, or by switching from a series of gravity fed perfusion lines.

SNORF62 [1] = biological target: T1, SNORF62 (Homo sapiens, UniProt Q9HB89); assay: Calcium-activated Cl- currents in Xenopus oocytes injected with SNORF62 mRNA; assay type: cell-based; set-up: from linearized plasmids or PCR products containing the complete coding region of the gene; expressed in transfected cells; host or cells: Xenopus laevis oocytes injected with in vitro transcribed SNORF62 mRNA; conditions: 1 μM peptide, n=3
T1 sequence (Q9HB89 1-426): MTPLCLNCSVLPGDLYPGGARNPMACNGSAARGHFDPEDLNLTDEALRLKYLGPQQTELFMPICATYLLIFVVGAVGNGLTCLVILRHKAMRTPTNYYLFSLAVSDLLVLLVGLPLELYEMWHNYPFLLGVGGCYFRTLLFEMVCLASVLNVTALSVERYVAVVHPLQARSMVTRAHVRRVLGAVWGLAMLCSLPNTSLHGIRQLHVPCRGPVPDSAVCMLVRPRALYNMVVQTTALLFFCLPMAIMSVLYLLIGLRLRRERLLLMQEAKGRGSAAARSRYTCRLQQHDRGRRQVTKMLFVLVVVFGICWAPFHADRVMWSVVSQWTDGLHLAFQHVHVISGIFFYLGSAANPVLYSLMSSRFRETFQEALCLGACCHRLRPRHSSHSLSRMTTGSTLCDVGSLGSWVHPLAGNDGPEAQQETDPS
Procedure: Heterologous expression of GPCRs in Xenopus oocytes has been widely used to determine the identity of signaling pathways activated by agonist stimulation (Gundersen et al., 1983; Takahashi et al., 1987). Activation of the phospholipase C (PLC) pathway is assayed by applying a test compound in ND96 solution to oocytes previously injected with mRNA for the human SNORF62 and observing inward currents at a holding potential of approximately −80 mV. The appearance of currents that reverse at −25 mV and display other properties of the Ca^++-activated Cl^− channel is indicative of receptor-acitivation of PLC and release of IP3 and intracellular Ca^++.
In the present invention, oocytes were harvested from Xenopus laevis and injected with mRNA transcripts as previously described (Quick and Lester, 1994; Smith et al., 1997). SNORF62 mRNA transcript was synthesized using the T7 polymerase (“Message Machine”, Ambion) from linearized plasmids or PCR products containing the complete coding region of the gene. Oocytes were injected with 1–50 ng synthetic receptor RNA and incubated for 3–8 days at 17° C. Currents were recorded under dual electrode voltage clamp (Axon Instruments Inc.) with 3 M KCl-filled glass microelectrodes having resistances of 1–2 Mohm. Unless otherwise specified, oocytes were voltage clamped at a holding potential of −80 mV. […]

SNORF62 [2] = biological target: T1, SNORF62; assay: Intracellular Ca2+ release (FLIPR) in SNORF62-transfected COS-7 cells; assay type: cell-based; set-up: The SNORF62 cDNA codes for a protein of 426 amino acids; expressed in transfected cells; host or cells: COS-7 (transient, DEAE-dextran)

FRVDEEFQSPFASQSRGYFLFRPRN-NH2 [human NMU-25, FRVDEEFQSPFASQSRGYFLFRPRN—NH2]
response in control oocytes (control oocytes): no response
current amplitude (SNORF62 [1]): 1065±211 nA
Ca2+ release response following pretreatment with pertussis toxin (SNORF62 [2]; pertussis toxin 100 ng/ml for 18-20 hours, n=2, data not shown): present
EC50 (SNORF62 [2]; stimulation of Ca2+ release, SNORF62-transfected COS-7 cells, n = 2-7 (Table 1A)): 4 ± 1.3 nM
